Experimental findings from US10266526B2, “Substituted 1,2,3-triazoles as SMYD inhibitors for treating cancer” (EPIZYME, INC., priority 2014, dated 2019) are described below.

In this assay the target is SMYD3 (Homo sapiens (Human), UniProt Q9H7B4). Nature of the assay: SMYD3 biochemical assay (SMYD3 enzyme assay on MEKK2 protein substrate, 3H-SAM scintillation proximity assay). The conditions noted are these: read-out: SMYD3 Biochem IC50. An outline of the steps: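 Detection used scintillation proximity beads to capture ³H-methylated GST-MEKK2 after quench with 100 uM final cold SAM. The reaction was started by SAM/MEKK2 addition after a 30 min RT compound–enzyme preincubation. Enzyme was tag-free full-length human SMYD3 from E. coli, in buffer of 25 mM Tris-Cl pH 8.0, 1 mM TCEP, 0.005% BSG, 0.005% Tween 20.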
SMYD3, sequence (Q9H7B4 whole entry): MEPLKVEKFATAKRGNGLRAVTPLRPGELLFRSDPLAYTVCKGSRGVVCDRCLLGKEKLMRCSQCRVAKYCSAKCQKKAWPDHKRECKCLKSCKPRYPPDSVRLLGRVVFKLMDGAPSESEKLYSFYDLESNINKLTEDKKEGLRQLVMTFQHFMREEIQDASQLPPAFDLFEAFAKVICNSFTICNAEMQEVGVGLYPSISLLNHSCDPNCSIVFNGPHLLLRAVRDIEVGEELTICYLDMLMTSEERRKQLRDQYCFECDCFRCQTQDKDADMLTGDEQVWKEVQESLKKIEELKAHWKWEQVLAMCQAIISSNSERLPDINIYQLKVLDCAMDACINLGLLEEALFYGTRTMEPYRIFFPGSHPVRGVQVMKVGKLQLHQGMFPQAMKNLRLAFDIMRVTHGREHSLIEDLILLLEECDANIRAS
(In general: Scintillation proximity formats need no separation of bound from free tracer.)
One may read the IC50 as the concentration at which inhibition is half-maximal. Regarding `CC1Oc2ccc(C(=O)N[C@H]3CC[C@H](NC(=O)CCN)CC3)cc2NC1=O` (stereo partly shown) [compound 451, N-((1r,4r)-4-(3-aminopropanamido)cyclohexyl)-2-methyl-3-oxo-3,4-dihydro-2H-benzo[b][1,4]oxazine-6-carboxamide], the IC50 was 9.9 µM. In the case of `CC1Oc2ccc(C(=O)N[C@H]3CC[C@H](N)CC3)cc2NC1=O` (stereo partly shown) [compound 452, N-((1r,4r)-4-aminocyclohexyl)-2-methyl-3-oxo-3,4-dihydro-2H-benzo[b][1,4]oxazine-6-carboxamide] it was 39.1 µM. The same measure for `Cc1nn(C(C)C(=O)N[C@H]2CC[C@H](N)CC2)c(C)c1Br` (stereo partly shown) [compound 454, N-((1r,4r)-4-aminocyclohexyl)-2-(4-bromo-3,5-dimethyl-1H-pyrazol-1-yl)propanamide]: above 100 µM. The same measure for `N[C@H]1CC[C@H](NC(=O)c2ccc(-n3cncn3)cc2)CC1` [compound 455, N-((1r,4r)-4-aminocyclohexyl)-4-(1H-1,2,4-triazol-1-yl)benzamide]: above 100 µM; for `NCCC(=O)N[C@H]1CC[C@H](NC(=O)c2cc3ccccc3nc2O)CC1` [compound 456, N-((1r,4r)-4-(3-aminopropanamido)cyclohexyl)-2-hydroxyquinoline-3-carboxamide]: 22 µM; for `N[C@H]1CC[C@H](NC(=O)Cc2cccc(C(F)(F)F)c2)CC1` [compound 457, N-((1r,4r)-4-aminocyclohexyl)-2-(3-(trifluoromethyl)phenyl)acetamide]: above 100 µM. `Cc1nc2ccccc2c(C(=O)N[C@H]2CC[C@H](N)CC2)c1N` [compound 458, 3-amino-N-((1r,4r)-4-aminocyclohexyl)-2-methylquinoline-4-carboxamide]: the half-maximal inhibitory concentration (IC50) is above 100 µM. Consider `NC1CCC(NC(=O)[C@H]2Cc3ccccc3CN2)CC1` (stereo partly drawn) [compound 459, (3R)-N-(4-aminocyclohexyl)-1,2,3,4-tetrahydroisoquinoline-3-carboxamide], for which the IC50 is above 100 µM. The same measure for `N[C@H]1CC[C@H](NC(=O)c2cc3cccc(O)c3cc2O)CC1` [compound 460, N-((1r,4r)-4-aminocyclohexyl)-3,5-dihydroxy-2-naphthamide]: 20.7 µM; for `O=C1CC2CN(C(=O)CC3CCNCC3)CCC2N1` (stereo not shown) [compound 461, 5-(2-(piperidin-4-yl)acetyl)octahydro-2H-pyrrolo[3,2-c]pyridin-2-one]: above 100 µM.

On to `CC(=O)Nc1ccc(C(=O)NC(C)C2CCN(C(=O)[C@H](C)N)CC2)nc1` (stereo partly drawn) [compound 462, N-(1-(1-(L-alanyl)piperidin-4-yl)ethyl)-5-acetamidopicolinamide], for which the IC50 was above 100 µM. The same measure for `CC(=O)Nc1ccc(C(=O)N[C@H]2CC[C@H](NC(=O)CCN)CC2)nc1` [compound 463, 5-acetamido-N-((1r,4r)-4-(3-aminopropanamido)cyclohexyl)picolinamide]: above 100 µM. On to `CC(NC(=O)c1noc(C2CC2)n1)C1CCN(C(=O)[C@H](C)N)CC1` (stereo partly drawn) [compound 464, N-(1-(1-(L-alanyl)piperidin-4-yl)ethyl)-5-cyclopropyl-1,2,4-oxadiazole-3-carboxamide], for which the IC50 stood at 32.7 µM. The same measure for `NCCC(=O)N[C@H]1CC[C@H](NC(=O)Cc2ccc3c(c2)CC(=O)N3)CC1` [compound 465, 3-amino-N-((1r,4r)-4-(2-(2-oxoindolin-5-yl)acetamido)cyclohexyl)propanamide]: 38.8 µM; for `CC(NC(=O)Cc1ccc2c(c1)CC(=O)N2)C1CCN(C(=O)[C@H](C)N)CC1` (stereo partly drawn) [compound 466, N-(1-(1-(L-alanyl)piperidin-4-yl)ethyl)-2-(2-oxoindolin-5-yl)acetamide]: 60 µM.

For `NCCC(=O)N[C@H]1CC[C@H](C(=O)Nc2ccc3c(c2)CC(=O)N3)CC1` [compound 467, (1r,4r)-4-(3-aminopropanamido)-N-(2-oxoindolin-5-yl)cyclohexane-1-carboxamide], the IC50 is 4.46 µM.

For the compound `CC(C)(CNC(=O)CCN)CNS(=O)(=O)c1ccc2c(c1)CC(=O)N2` [compound 468, 3-amino-N-(2,2-dimethyl-3-((2-oxoindoline)-5-sulfonamido)propyl)propanamide], the half-maximal inhibitory concentration (IC50) was 18.3 µM. In the case of `CC(NC(=O)c1ccc2c(c1)CNC2=O)C1CCN(C(=O)[C@H](C)N)CC1` (stereo partly drawn) [compound 469, N-(1-(1-(L-alanyl)piperidin-4-yl)ethyl)-1-oxoisoindoline-5-carboxamide] it was above 100 µM; in that of `N[C@H]1CC[C@H](NC(=O)c2ccc3c(c2)C(=O)C(=O)N3)CC1` [compound 470, N-((1r,4r)-4-aminocyclohexyl)-2,3-dioxoindoline-5-carboxamide], 7.46 µM; in that of `NCCC(=O)N[C@H]1CC[C@H](NC(=O)c2ccc3c(c2)CC(=O)N3)CC1` [compound 471, N-((1r,4r)-4-(3-aminopropanamido)cyclohexyl)-2-oxoindoline-5-carboxamide], 0.61 µM.

With `CC(NC(=O)c1ccc(-n2cncn2)cc1)C1CCN(C(=O)[C@H](C)N)CC1` (stereo partly drawn) [compound 472, N-(1-(1-(L-alanyl)piperidin-4-yl)ethyl)-4-(1H-1,2,4-triazol-1-yl)benzamide], the half-inhibitory concentration (IC50) is above 100 µM. As for `NCCC(=O)N[C@H]1CC[C@H](NC(=O)c2ccc(-n3cncn3)cc2)CC1` [compound 473, N-((1r,4r)-4-(3-aminopropanamido)cyclohexyl)-4-(1H-1,2,4-triazol-1-yl)benzamide], the IC50 was 53.1 µM.

Take `CC(NC(=O)c1cc2ccccc2nc1O)C1CCN(C(=O)[C@H](C)N)CC1` (stereo partly drawn) [compound 474, N-(1-(1-(L-alanyl)piperidin-4-yl)ethyl)-2-hydroxyquinoline-3-carboxamide]: the concentration for half-maximal inhibition (IC50) came out at 22.1 µM. Take `N[C@H]1CC[C@H](NC(=O)c2cc3ccccc3nc2O)CC1` [compound 475, N-((1r,4r)-4-aminocyclohexyl)-2-hydroxyquinoline-3-carboxamide]: the IC50 stood at 22.2 µM.

As to `CC(NC(=O)Cc1cccc(C(F)(F)F)c1)C1CCN(C(=O)[C@H](C)N)CC1` (stereo partly drawn) [compound 476, N-(1-(1-(L-alanyl)piperidin-4-yl)ethyl)-2-(3-(trifluoromethyl)phenyl)acetamide], the half-inhibitory concentration (IC50) is 51.1 µM. As for `NCCC(=O)N[C@H]1CC[C@H](NC(=O)Cc2cccc(C(F)(F)F)c2)CC1` [compound 477, 3-amino-N-((1r,4r)-4-(2-(3-(trifluoromethyl)phenyl)acetamido)cyclohexyl)propanamide], the IC50 amounted to 22.8 µM. In the case of `Cc1nc2ccccc2c(C(=O)N[C@H]2CC[C@H](NC(=O)CCN)CC2)c1N` [compound 478, 3-amino-N-((1r,4r)-4-(3-aminopropanamido)cyclohexyl)-2-methylquinoline-4-carboxamide] it was 31.6 µM; in that of `NCCC(=O)N[C@H]1CC[C@H](NC(=O)c2cc3cccc(O)c3cc2O)CC1` [compound 479, N-((1r,4r)-4-(3-aminopropanamido)cyclohexyl)-3,5-dihydroxy-2-naphthamide], 5.02 µM. For `N[C@H]1CC[C@H](NC(=O)c2ncccc2O)CC1` [compound 480, N-((1r,4r)-4-aminocyclohexyl)-3-hydroxypicolinamide], the IC50 was above 100 µM. The same measure for `NCCC(=O)N[C@H]1CC[C@H](NC(=O)C2=NNC(=O)CC2)CC1` [compound 481, N-((1r,4r)-4-(3-aminopropanamido)cyclohexyl)-6-oxo-1,4,5,6-tetrahydropyridazine-3-carboxamide]: 15.1 µM; for `NCCC(=O)N[C@H]1CC[C@H](NC(=O)/C=C/c2c[nH]cn2)CC1` [compound 482, (E)-N-((1r,4r)-4-(3-aminopropanamido)cyclohexyl)-3-(1H-imidazol-4-yl)acrylamide]: 71.1 µM; for `NCCC(=O)N1CCC(CC(=O)N2CCC3NC(=O)CC3C2)CC1` (stereo not shown) [compound 483, 5-(2-(1-(3-aminopropanoyl)piperidin-4-yl)acetyl)octahydro-2H-pyrrolo[3,2-c]pyridin-2-one]: 10.2 µM. As for `N[C@H]1CC[C@H](NC(=O)c2noc(C3CC3)n2)CC1` [compound 484, N-((1r,4r)-4-aminocyclohexyl)-5-cyclopropyl-1,2,4-oxadiazole-3-carboxamide], the IC50 turned out to be 85.7 µM. Regarding `NCCC(=O)N[C@H]1CC[C@H](NC(=O)c2noc(C3CC3)n2)CC1` [compound 485, N-((1r,4r)-4-(3-aminopropanamido)cyclohexyl)-5-cyclopropyl-1,2,4-oxadiazole-3-carboxamide], the IC50 came to 12.9 µM.

Turning to `CC(C)(CNC(=O)CN)CNS(=O)(=O)c1ccc2c(c1)CC(=O)N2` [compound 486, 2-amino-N-(2,2-dimethyl-3-((2-oxoindoline)-5-sulfonamido)propyl)acetamide], the IC50 is 18.8 µM. The same measure for `N[C@H]1CC[C@H](NC(=O)c2ccc3c(c2)CNC3=O)CC1` [compound 487, N-((1r,4r)-4-aminocyclohexyl)-1-oxoisoindoline-5-carboxamide]: 37.9 µM; for `CC(NC(=O)c1ccc2c(c1)C(=O)C(=O)N2)C1CCN(C(=O)[C@H](C)N)CC1` (stereo partly drawn) [compound 488, N-(1-(1-(L-alanyl)piperidin-4-yl)ethyl)-2,3-dioxoindoline-5-carboxamide]: 14.1 µM. For the compound `Cc1nc2ccccc2c(C(=O)NC(C)C2CCN(C(=O)[C@H](C)N)CC2)c1N` (stereo partly drawn) [compound 489, N-(1-(1-(L-alanyl)piperidin-4-yl)ethyl)-3-amino-2-methylquinoline-4-carboxamide], the IC50 is 31.6 µM.

Consider `N[C@H]1CC[C@H](NC(=O)c2cc3c(cc2Cl)NC(=O)C3)CC1` [compound 492, N-((1r,4r)-4-aminocyclohexyl)-6-chloro-2-oxoindoline-5-carboxamide], for which the IC50 came to 1.59 µM. In the case of `N[C@H]1CC[C@H](NC(=O)c2cncnc2O)CC1` [compound 493, N-((1r,4r)-4-aminocyclohexyl)-4-hydroxypyrimidine-5-carboxamide], the 50% inhibitory concentration (IC50) is above 50 µM.
